Here are results for 1 molecule from patent US20100190694A1, “Methods for identifying patients who will respond well to cancer treatment” (priority 2009, published 2010).

The subject of this assay is advanced solid tumors. The experiment in a line: Phase I study: efficacy by RECIST, treatment duration, TTP. The note with it: Pat 101-6, esophageal adenoca, before study. Type of assay: in vivo, human. The source says:
Phase I dose-escalation, multi-center study with the objectives to assess: • maximum tolerated dose and dose limiting toxicities (DLT) of Bel in combination with FU • impact of Bel on expression of TS, dihydropyrimidine dehydrogenase (DPD), and p21, in tumor and non-tumor surrogate tissue (peripheral blood mononuclear cells; PBMC) • preliminary anti-tumor activity of Bel in combination with FU • impact of Bel on ECG parameters • pharmacokinetics (PK) of Bel when given in combination with FU
Treatment cycles of 21 days included Bel alone in cycle 1, and Bel in combination with FU in all subsequent cycles (FIG. 4). Treatment was to continue until significant treatment-related toxicity or progressive disease. […]
DLTs, i.e. grade ¾ non-hematologic toxicities and grade 4 neutropenia or thrombocytopenia, were determined in cycles 1 and 2. Safety was assessed by NCI CTC (v. 3) and efficacy by RECIST criteria. Expression of TS, DPD, and p21 mRNA was measured by RTQ-PCR in PBMC (20 patients at baseline, and pre-dosing, 6 and 24-hours post-dosing, on days 1 and 4 in cycle 1) and in tumor biopsies (8 patients at baseline and once on days 4 or 5 in cycle 1). Results were expressed as gene expression relative to actin (i.e. TS/Actin Relative Gene Expression, DPD/Actin Relative Gene Expression, and p21/Actin Relative Gene Expression).

As for `CC(=O)O[C@H]1C(=O)[C@@]2(C)[C@H]([C@H](OC(=O)c3ccccc3)[C@]3(O)C[C@H](OC(=O)[C@H](O)[C@@H](NC(=O)c4ccccc4)c4ccccc4)C(C)=C1C3(C)C)[C@]1(OC(C)=O)CO[C@@H]1C[C@@H]2O` [paclitaxel], the “TTP on most recent prior line of therapy” value is given as “(12.0 weeks)”.
